# Experimental data: PubChem BioAssay AID1963959 (Molecular Pharmacology Branch, DTP, NCI, 2024)
# System: T-47D spheroids with HUVEC/MSC, viability
# Test: Anticancer human tumor T-47D cell line growth inhibition [PI3K];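 further: spheroids exposed to agents for seven days before reading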;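 on viability, T/C: percent of DMSO vehicle control luminescence so 100% = untreated growth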
# Conditions: for IC50: curve of first compound; for viability, T/C: stronger effect = lower value
# In short: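 We assembled tumor spheroids that included a stromal compartment of HUVEC and MSCs, then exposed them to targeted agents alone and together with PI3K pathway inhibitors. Concentration series descended by half-log from clinically achievable Cmax levels. Viability served as the endpoint.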
# [1] = second compound 0.00316 µM, first compound 0.0316 µM
# [2] = second compound 0.00316 µM, first compound 0.1 µM
# [3] = second compound 0.00316 µM, first compound 0.316 µM
# [4] = second compound 0.00316 µM, first compound 1 µM
# [5] = second compound 0.00316 µM, first compound 3.16 µM
# [6] = second compound 0.00316 µM, first compound 10 µM
# [7] = second compound 0.01 µM, first compound 0.0316 µM
# [8] = second compound 0.01 µM, first compound 0.1 µM
# [9] = second compound 0.01 µM, first compound 0.316 µM
# [10] = second compound 0.01 µM, first compound 1 µM
# [11] = second compound 0.01 µM, first compound 3.16 µM
# [12] = second compound 0.01 µM, first compound 10 µM
# [13] = second compound 0.0316 µM, first compound 0.0316 µM
# [14] = second compound 0.0316 µM, first compound 0.1 µM
# [15] = second compound 0.0316 µM, first compound 0.316 µM
# [16] = second compound 0.0316 µM, first compound 1 µM
# [17] = second compound 0.0316 µM, first compound 3.16 µM
# [18] = second compound 0.0316 µM, first compound 10 µM
# [19] = second compound 0.1 µM, first compound 0.0316 µM
# [20] = second compound 0.1 µM, first compound 0.1 µM
# [21] = second compound 0.1 µM, first compound 0.316 µM
# [22] = second compound 0.1 µM, first compound 1 µM
# [23] = second compound 0.1 µM, first compound 3.16 µM
# [24] = second compound 0.1 µM, first compound 10 µM
# [25] = second compound 0.316 µM, first compound 0.0316 µM
# [26] = second compound 0.316 µM, first compound 0.1 µM
# [27] = second compound 0.316 µM, first compound 0.316 µM
# [28] = second compound 0.316 µM, first compound 1 µM
# [29] = second compound 0.316 µM, first compound 3.16 µM
# [30] = second compound 0.316 µM, first compound 10 µM
# [31] = second compound 1 µM, first compound 0.0316 µM
# [32] = second compound 1 µM, first compound 0.1 µM
# [33] = second compound 1 µM, first compound 0.316 µM
# [34] = second compound 1 µM, first compound 1 µM
# [35] = second compound 1 µM, first compound 3.16 µM
# [36] = second compound 1 µM, first compound 10 µM
structure (smiles),measurement,setting,value
CC1(C)CCC(Nc2ncc(C(F)(F)F)c(-c3c[nH]c4c(P(C)(C)=O)c(C#N)ccc34)n2)CN1 (stereo not drawn) + COc1c(OCCCN2CCOCC2)ccc2c3n(c(=NC(=O)c4cnc(N)nc4)nc12)CCN3,IC50,second compound 0.00316 µM,> 10 µM
same,IC50,second compound 0.01 µM,> 10 µM
same,IC50,second compound 0.0316 µM,< 0.0316 µM
same,IC50,second compound 0.1 µM,< 0.0316 µM
same,IC50,second compound 0.316 µM,< 0.0316 µM
same,IC50,second compound 1 µM,< 0.0316 µM
same,"viability, T/C",[1],70.8%
same,"viability, T/C",[2],60.4%
same,"viability, T/C",[3],68%
same,"viability, T/C",[4],74.5%
same,"viability, T/C",[5],77.7%
same,"viability, T/C",[6],57.5%
same,"viability, T/C",[7],67.6%
same,"viability, T/C",[8],62.4%
same,"viability, T/C",[9],55.2%
same,"viability, T/C",[10],50.2%
same,"viability, T/C",[11],73.8%
same,"viability, T/C",[12],46%
same,"viability, T/C",[13],44.3%
same,"viability, T/C",[14],42.6%
same,"viability, T/C",[15],42.8%
same,"viability, T/C",[16],38.8%
same,"viability, T/C",[17],46.9%
same,"viability, T/C",[18],14.1%
same,"viability, T/C",[19],28%
same,"viability, T/C",[20],33.8%
same,"viability, T/C",[21],28.8%
same,"viability, T/C",[22],29.8%
same,"viability, T/C",[23],26.5%
same,"viability, T/C",[24],8.25%
same,"viability, T/C",[25],20%
same,"viability, T/C",[26],24.4%
same,"viability, T/C",[27],15.6%
same,"viability, T/C",[28],19.1%
same,"viability, T/C",[29],17.4%
same,"viability, T/C",[30],3.95%
same,"viability, T/C",[31],8.6%
same,"viability, T/C",[32],12.8%
same,"viability, T/C",[33],8.27%
same,"viability, T/C",[34],7.59%
same,"viability, T/C",[35],10.4%
same,"viability, T/C",[36],2.66%
CNC(=O)c1ccc(N2C(=S)N(c3ccc(C#N)c(C(F)(F)F)c3)C(=O)C2(C)C)cc1F + COc1c(OCCCN2CCOCC2)ccc2c3n(c(=NC(=O)c4cnc(N)nc4)nc12)CCN3,IC50,second compound 0.00316 µM,> 10 µM
same,IC50,second compound 0.01 µM,> 10 µM
same,IC50,second compound 0.0316 µM,> 10 µM
same,IC50,second compound 0.1 µM,< 0.0316 µM
same,IC50,second compound 0.316 µM,< 0.0316 µM
same,IC50,second compound 1 µM,< 0.0316 µM
same,"viability, T/C",[1],122%
same,"viability, T/C",[2],84.3%
same,"viability, T/C",[3],87.8%
same,"viability, T/C",[4],81.1%
same,"viability, T/C",[5],98.8%
same,"viability, T/C",[6],86.5%
same,"viability, T/C",[7],102%
same,"viability, T/C",[8],90.3%
same,"viability, T/C",[9],105%
same,"viability, T/C",[10],104%
same,"viability, T/C",[11],81.3%
same,"viability, T/C",[12],91.2%
same,"viability, T/C",[13],72.3%
same,"viability, T/C",[14],80%
same,"viability, T/C",[15],72.1%
same,"viability, T/C",[16],69.1%
same,"viability, T/C",[17],64.4%
same,"viability, T/C",[18],62%
same,"viability, T/C",[19],37.6%
same,"viability, T/C",[20],44.8%
same,"viability, T/C",[21],40%
same,"viability, T/C",[22],46%
same,"viability, T/C",[23],37.2%
same,"viability, T/C",[24],43.8%
same,"viability, T/C",[25],18.9%
same,"viability, T/C",[26],21.8%
same,"viability, T/C",[27],16.7%
same,"viability, T/C",[28],19.6%
same,"viability, T/C",[29],18.1%
same,"viability, T/C",[30],14.9%
same,"viability, T/C",[31],5.78%
same,"viability, T/C",[32],6.91%
same,"viability, T/C",[33],7.72%
same,"viability, T/C",[34],3.81%
same,"viability, T/C",[35],3.1%
same,"viability, T/C",[36],4.67%
CC(Cn1ccc(-c2ccc(C#N)c(Cl)c2)n1)NC(=O)c1cc(C(C)O)[nH]n1 (stereo not drawn) + COc1c(OCCCN2CCOCC2)ccc2c3n(c(=NC(=O)c4cnc(N)nc4)nc12)CCN3,IC50,second compound 0.00316 µM,> 10 µM
same,IC50,second compound 0.01 µM,> 10 µM
same,IC50,second compound 0.0316 µM,8.44 µM
same,IC50,second compound 0.1 µM,< 0.0316 µM
same,IC50,second compound 0.316 µM,< 0.0316 µM
same,IC50,second compound 1 µM,< 0.0316 µM
same,"viability, T/C",[1],89%
same,"viability, T/C",[2],96%
same,"viability, T/C",[3],96.1%
same,"viability, T/C",[4],88%
same,"viability, T/C",[5],104%
same,"viability, T/C",[6],75.3%
same,"viability, T/C",[7],103%
same,"viability, T/C",[8],83.3%
same,"viability, T/C",[9],101%
same,"viability, T/C",[10],93.5%
same,"viability, T/C",[11],95.4%
same,"viability, T/C",[12],59.5%
same,"viability, T/C",[13],69.2%
same,"viability, T/C",[14],77.4%
same,"viability, T/C",[15],74.7%
same,"viability, T/C",[16],82.1%
same,"viability, T/C",[17],79%
same,"viability, T/C",[18],45.7%
same,"viability, T/C",[19],38.9%
same,"viability, T/C",[20],39.2%
same,"viability, T/C",[21],41.5%
same,"viability, T/C",[22],45.7%
same,"viability, T/C",[23],40.7%
same,"viability, T/C",[24],33.9%
same,"viability, T/C",[25],14.8%
same,"viability, T/C",[26],15.9%
same,"viability, T/C",[27],15.3%
same,"viability, T/C",[28],14.4%
same,"viability, T/C",[29],18.7%
same,"viability, T/C",[30],20.4%
same,"viability, T/C",[31],8.77%
same,"viability, T/C",[32],8.22%
same,"viability, T/C",[33],7.63%
same,"viability, T/C",[34],5.85%
same,"viability, T/C",[35],7.24%
same,"viability, T/C",[36],3.67%
Cn1ncc(Cl)c1-c1cc(C(=O)NC(CN)Cc2cccc(F)c2)sc1Cl (stereo not drawn) + COc1c(OCCCN2CCOCC2)ccc2c3n(c(=NC(=O)c4cnc(N)nc4)nc12)CCN3,IC50,second compound 0.00316 µM,> 10 µM
same,IC50,second compound 0.01 µM,> 10 µM
same,IC50,second compound 0.0316 µM,> 10 µM
same,IC50,second compound 0.1 µM,< 0.0316 µM
same,IC50,second compound 0.316 µM,< 0.0316 µM
same,IC50,second compound 1 µM,< 0.0316 µM
same,"viability, T/C",[1],105%
same,"viability, T/C",[2],102%
same,"viability, T/C",[3],82.3%
same,"viability, T/C",[4],77.4%
same,"viability, T/C",[5],66.2%
same,"viability, T/C",[6],77.7%
same,"viability, T/C",[7],108%
same,"viability, T/C",[8],99.8%
same,"viability, T/C",[9],80.5%
same,"viability, T/C",[10],70.3%
same,"viability, T/C",[11],70%
same,"viability, T/C",[12],77.7%
same,"viability, T/C",[13],94.4%
same,"viability, T/C",[14],70.6%
same,"viability, T/C",[15],61.5%
same,"viability, T/C",[16],65%
same,"viability, T/C",[17],65.1%
same,"viability, T/C",[18],73.2%
same,"viability, T/C",[19],48.8%
same,"viability, T/C",[20],46.5%
same,"viability, T/C",[21],39.4%
same,"viability, T/C",[22],39.2%
same,"viability, T/C",[23],55.7%
same,"viability, T/C",[24],48.7%
same,"viability, T/C",[25],17.2%
same,"viability, T/C",[26],20.4%
same,"viability, T/C",[27],19.1%
same,"viability, T/C",[28],19.6%
same,"viability, T/C",[29],24.3%
same,"viability, T/C",[30],39.5%
same,"viability, T/C",[31],7.39%
same,"viability, T/C",[32],7.86%
same,"viability, T/C",[33],6.72%
same,"viability, T/C",[34],6.88%
same,"viability, T/C",[35],15.6%
same,"viability, T/C",[36],10.9%
